# Reference: patent publication US20110212999A1, “TRIAZOLE DERIVATIVES AND THEIR USE AS NICOTINIC ACETYLCHOLINE RECEPTOR MODULATORS” (NEUROSEARCH A/S, priority 2008, published 2011)
# Tested on: not given
# Experiment: not given
# Conditions: not given
row,SMILES,melting point [°C]
1,"N#Cc1cccc(-n2cc(-c3cccnc3Cl)nn2)c1 [Compound 1J, 3-[4-(2-Chloro-pyridin-3-yl)-[1,2,3]triazol-1-yl]-benzonitrile]",181 to 182.6
2,"Fc1ccc(-n2cc(-c3cccnc3)nn2)cc1 [Compound 1S, 3-[1-(4-Fluoro-phenyl)-1H-[1,2,3]triazol-4-yl]-pyridine]",179.9 to 190.9
3,"N#Cc1cccc(-n2cc(-c3ccc(Cl)nc3)nn2)c1 [Compound 1H, 3-[4-(6-Chloro-pyridin-3-yl)-[1,2,3]triazol-1-yl]-benzonitrile]",219.3 to 220
4,"Fc1cncc(-n2cc(-c3cccnc3)nn2)c1 [Compound 1O, 3-Fluoro-5-(4-pyridin-3-yl-[1,2,3]triazol-1-yl)-pyridine]",190.6 to 191.7
5,"COc1ccc(-c2cn(-c3cccnc3)nn2)cn1 [Compound 1N, 2-Methoxy-5-(1-pyridin-3-yl-1H-[1,2,3]triazol-4-yl)-pyridine]",205.6 to 206.9
6,"[C-]#[N+]c1cccc(-c2cn(-c3cccnc3Cl)nn2)c1 [Compound 1K, 2-Chloro-3-[4-(3-isocyano-phenyl)-[1,2,3]triazol-1-yl]-pyridine]",184 to 185
7,"Fc1ccc(-c2cn(-c3cccnc3)nn2)cn1 [Compound 1M, 2-Fluoro-5-(1-pyridin-3-yl-1H-[1,2,3]triazol-4-yl)-pyridine]",187 to 188.7
8,"c1cncc(-c2cn(-c3cccnc3)nn2)c1 [Compound 1B, 3-(1-Pyridin-3-yl-1H-[1,2,3]triazol-4-yl)-pyridine]",217 to 219
9,"Brc1cncc(-n2cc(-c3cccnc3)nn2)c1 [Compound 1Q, 3-Bromo-5-(4-pyridin-3-yl-[1,2,3]triazol-1-yl)-pyridine]",226.2 to 227.8
10,"Fc1cncc(-c2cn(-c3cccnc3)nn2)c1 [Compound 1L, 3-Fluoro-5-(1-pyridin-3-yl-1H-[1,2,3]triazol-4-yl)-pyridine]",190.2 to 191.6
11,"Fc1cccc(-n2cc(-c3cccnc3)nn2)c1 [Compound 1R, 3-[1-(3-Fluoro-phenyl)-1H-[1,2,3]triazol-4-yl]-pyridine]",156.3 to 158.2
12,"Fc1cccc(Cl)c1-c1cn(-c2cccnc2)nn1 [Compound 1E, 3-[4-(2-Chloro-6-fluoro-phenyl)-[1,2,3]triazol-1-yl]-pyridine]",94 to 95.2
13,"Fc1ccc(-n2cc(-c3cccnc3)nn2)cn1 [Compound 1P, 2-Fluoro-5-(4-pyridin-3-yl-[1,2,3]triazol-1-yl)-pyridine]",221.3 to 222.6
14,"Fc1cccc(Cl)c1-n1cc(-c2cccnc2)nn1 [Compound 1I, 3-[1-(2-Chloro-6-fluoro-phenyl)-1H-[1,2,3]triazol-4-yl]-pyridine]",94.5 to 97.1
15,"[C-]#[N+]c1cccc(-c2cn(-c3ccc(Cl)nc3)nn2)c1 [Compound 1G, 2-Chloro-5-[4-(3-isocyano-phenyl)-[1,2,3]triazol-1-yl]-pyridine]",202.2 to 203.6

# Target: T1, human nicotinic acetylcholine receptor subtype a4b2 (Homo sapiens, UniProt P17787+P43681)
# T1 construct: expressed in transfected cells; host or cells: HEK-293
# T1 sequence (P43681 29-627 limits assumed): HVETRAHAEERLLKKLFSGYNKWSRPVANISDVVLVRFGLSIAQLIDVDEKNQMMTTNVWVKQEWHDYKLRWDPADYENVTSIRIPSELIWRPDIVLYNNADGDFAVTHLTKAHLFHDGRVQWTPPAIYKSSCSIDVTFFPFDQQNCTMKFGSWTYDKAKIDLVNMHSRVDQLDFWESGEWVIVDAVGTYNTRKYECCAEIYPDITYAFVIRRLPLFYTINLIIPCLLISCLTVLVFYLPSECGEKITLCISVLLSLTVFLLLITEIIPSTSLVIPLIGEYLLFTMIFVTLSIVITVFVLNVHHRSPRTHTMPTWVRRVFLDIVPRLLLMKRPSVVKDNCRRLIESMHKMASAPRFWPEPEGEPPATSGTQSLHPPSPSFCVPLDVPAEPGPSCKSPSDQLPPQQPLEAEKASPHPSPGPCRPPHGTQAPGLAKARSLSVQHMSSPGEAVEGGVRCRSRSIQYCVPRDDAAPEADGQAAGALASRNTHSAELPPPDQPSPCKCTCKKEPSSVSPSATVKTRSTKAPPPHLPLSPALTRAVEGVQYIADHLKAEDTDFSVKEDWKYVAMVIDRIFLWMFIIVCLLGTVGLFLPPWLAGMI
# T1 sequence (P17787 26-502): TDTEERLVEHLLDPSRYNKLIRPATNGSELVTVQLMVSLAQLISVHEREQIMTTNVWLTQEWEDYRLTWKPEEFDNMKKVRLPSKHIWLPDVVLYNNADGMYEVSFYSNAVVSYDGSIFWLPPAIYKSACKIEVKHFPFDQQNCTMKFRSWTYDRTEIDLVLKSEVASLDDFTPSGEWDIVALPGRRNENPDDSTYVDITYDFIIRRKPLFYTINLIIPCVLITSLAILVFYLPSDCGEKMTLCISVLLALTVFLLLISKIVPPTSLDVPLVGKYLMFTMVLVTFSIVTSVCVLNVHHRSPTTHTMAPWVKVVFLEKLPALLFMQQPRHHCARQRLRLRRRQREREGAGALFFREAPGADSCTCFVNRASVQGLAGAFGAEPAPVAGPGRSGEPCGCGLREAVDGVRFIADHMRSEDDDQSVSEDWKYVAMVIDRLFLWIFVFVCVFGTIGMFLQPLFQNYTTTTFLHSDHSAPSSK
# Experiment: FLIPR nAChR a4b2 positive allosteric modulator activity (shift of nicotine concentration-response)
# Type: cell-based
# Conditions: nicotine +/- test compound, HEK-293 cells stably expressing hα4β2
# Experimental: Characterization of hα4β2 positive allosteric modulators using FLIPR
# The modulator activity is determined as a fluorescence-based assay using a Fluorometric Imaging Plate Reader (FLIPR) as described below in more detail.
# Full concentration-response curves of nicotine +/− test compound are generated and delta pEC50 values are calculated based on EC50 values for nicotine +/− test compound. EC50 values (Effective Concentration 50%) represent the concentration of the nicotine, at which the nicotine-induced response is 50% of the maximal nicotine-induced response.
# Preferred compounds of the invention show an activity determined as delta pEC50 values above 1 in the presence of 10 μM of the test compound compared to nicotine alone.
row,SMILES,Delta pEC50
1,"N#Cc1cccc(-n2cc(-c3cccnc3)nn2)c1 [Compound 1, 3-(4-Pyridin-3-yl-[1,2,3]triazol-1-yl)-benzonitrile]",1.6
2,"N#Cc1ccc(-n2cc(-c3cccnc3)nn2)o1 [Compound 2, 5-(4-pyridin-3-yl-[1,2,3]triazol-1-yl)-furan-2-carbonitrile]",1.2
